Reference: ChEMBL document CHEMBL1201861, “Genomics of Drug Sensitity in Cancer screening data, Wellcome Trust Sanger Institute”

Experiments:
Experiment in all cases: cells
[1] = test system: T98G; format: functional, cell-based, Homo sapiens;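 also: growth inhibition of T98G cells, read out by a cell viability assay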
Description: SANGER: Inhibition of human T98G cell growth in a cell viability assay.

[2] = test system: COLO-680N; format: functional, cell-based, Homo sapiens;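 also: cell viability assay used to measure inhibition of COLO-680N cell growth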
Description: SANGER: Inhibition of human COLO-680N cell growth in a cell viability assay.

[3] = test system: 647-V; format: functional, cell-based, Homo sapiens;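 also: growth inhibition of 647-V cells, read out with a cell viability assay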
Description: SANGER: Inhibition of human 647-V cell growth in a cell viability assay.

[4] = test system: MDA-MB-231; format: functional, cell-based, Homo sapiens
Description: SANGER: Inhibition of human MDA-MB-231 cell growth in a cell viability assay.

[5] = test system: A673; format: functional, cell-based, Homo sapiens;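 also: growth inhibition of human A673 cells, read out through a cell viability assay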
Description: SANGER: Inhibition of human A673 cell growth in a cell viability assay.

[6] = test system: A549; format: functional, cell-based, Homo sapiens;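 also: growth inhibition of A549 cells, read out with a cell viability assay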
Description: SANGER: Inhibition of human A549 cell growth in a cell viability assay.

[7] = test system: NCI-H522; format: functional, cell-based, Homo sapiens; settings: Homo sapiens, NCI-H522;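 also: cell viability assay measuring growth inhibition of human NCI-H522 cells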
Description: SANGER: Inhibition of human NCI-H522 cell growth in a cell viability assay.

[8] = test system: Hs-578T; format: functional, cell-based, Homo sapiens
Description: SANGER: Inhibition of human Hs-578-T cell growth in a cell viability assay.

[9] = test system: KYSE-270; format: functional, cell-based, Homo sapiens;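 also: cell growth inhibition measured with a viability assay in the human KYSE-270 line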
Description: SANGER: Inhibition of human KYSE-270 cell growth in a cell viability assay.

[10] = test system: OAW-28; format: functional, cell-based, Homo sapiens;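 also: growth inhibition of OAW-28 cells, read out with a cell viability assay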
Description: SANGER: Inhibition of human OAW-28 cell growth in a cell viability assay.

[11] = test system: HCC1395; format: functional, cell-based, Homo sapiens;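 also: growth inhibition of HCC1395 cells, read out by a cell viability assay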
Description: SANGER: Inhibition of human HCC1395 cell growth in a cell viability assay.

[12] = test system: A-427; format: functional, cell-based, Homo sapiens;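 also: growth inhibition of human A-427 cells, read out by a cell viability assay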
Description: SANGER: Inhibition of human A427 cell growth in a cell viability assay.

[13] = test system: MCF7; format: functional, cell-based, Homo sapiens;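 also: growth inhibition of human MCF7 cells, read out with a cell viability assay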
Description: SANGER: Inhibition of human MCF7 cell growth in a cell viability assay.

[14] = test system: SCC-25; format: functional, cell-based, Homo sapiens;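 also: growth inhibition of SCC-25 cells, measured with a cell viability assay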
Description: SANGER: Inhibition of human SCC-25 cell growth in a cell viability assay.

[15] = test system: HCC1806; format: functional, cell-based, Homo sapiens;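 also: growth inhibition of the cancer cell line, determined with a cell viability assay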
Description: SANGER: Inhibition of human HCC1806 cell growth in a cell viability assay.

[16] = test system: CFPAC-1; format: functional, cell-based, Homo sapiens;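 also: cell viability readout used to gauge suppression of CFPAC-1 cell proliferation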
Description: SANGER: Inhibition of human CFPAC-1 cell growth in a cell viability assay.

[17] = test system: NCI-H2122; format: functional, cell-based, Homo sapiens;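 also: growth inhibition of the cells, read out with a cell viability assay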
Description: SANGER: Inhibition of human NCI-H2122 cell growth in a cell viability assay.

[18] = test system: SK-OV-3; format: functional, cell-based, Homo sapiens;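 also: growth inhibition of SK-OV-3 human cells, read out with a cell viability assay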
Description: SANGER: Inhibition of human SK-OV-3 cell growth in a cell viability assay.

[19] = test system: G-402; format: functional, cell-based, Homo sapiens
Description: SANGER: Inhibition of human G-402 cell growth in a cell viability assay.

[20] = test system: MIA PaCa-2; format: functional, cell-based, Homo sapiens;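 also: growth inhibition of MIA PaCa-2 cells, read out with a cell viability assay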
Description: SANGER: Inhibition of human MIA-PaCa-2 cell growth in a cell viability assay.

[21] = test system: AU565; format: functional, cell-based, Homo sapiens;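 also: cell viability assay measuring growth inhibition of human AU565 cells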
Description: SANGER: Inhibition of human AU565 cell growth in a cell viability assay.

[22] = test system: RERF-LC-MS; format: functional, cell-based, Homo sapiens;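 also: growth inhibition of human RERF-LC-MS cells, read out by a cell viability assay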
Description: SANGER: Inhibition of human RERF-LC-MS cell growth in a cell viability assay.

[23] = test system: NCI-H596; format: functional, cell-based, Homo sapiens;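 also: growth inhibition of NCI-H596 cells, read out with a cell viability assay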
Description: SANGER: Inhibition of human NCI-H596 cell growth in a cell viability assay.

[24] = test system: U2OS; format: functional, cell-based, Homo sapiens, U-2-OS;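 also: growth inhibition of human U-2-OS cells, determined with a cell viability assay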
Description: SANGER: Inhibition of human U-2-OS cell growth in a cell viability assay.

[25] = test system: SW1417; format: functional, cell-based, Homo sapiens;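 also: growth inhibition of human SW1417 cells, read out with a cell viability assay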
Description: SANGER: Inhibition of human SW1417 cell growth in a cell viability assay.

[26] = test system: NCI-H1563; format: functional, cell-based, Homo sapiens;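 also: growth inhibition of human NCI-H1563 cells, read out with a cell viability assay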
Description: SANGER: Inhibition of human NCI-H1563 cell growth in a cell viability assay.

[27] = test system: A2780; format: functional, cell-based, Homo sapiens;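 also: growth inhibition of A2780 cells, read out with a cell viability assay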
Description: SANGER: Inhibition of human A2780 cell growth in a cell viability assay.

[28] = test system: HLE; format: functional, cell-based, Homo sapiens;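 also: growth inhibition of human HLE cells, read out by a cell viability assay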
Description: SANGER: Inhibition of human HLE cell growth in a cell viability assay.

[29] = test system: HO-1-N-1; format: functional, cell-based, Homo sapiens;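 also: growth inhibition of human HO-1-N-1 cells, read out with a cell viability assay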
Description: SANGER: Inhibition of human HO-1-N-1 cell growth in a cell viability assay.

[30] = test system: GCT; format: functional, cell-based, Homo sapiens;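 also: GCT cell line proliferation inhibition, read out with a cell viability assay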
Description: SANGER: Inhibition of human GCT cell growth in a cell viability assay.

[31] = test system: SKG-IIIa; format: functional, cell-based, Homo sapiens;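 also: cell growth inhibition, read out with a cell viability assay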
Description: SANGER: Inhibition of human SKG-IIIa cell growth in a cell viability assay.

[32] = test system: SNU-449; format: functional, cell-based, Homo sapiens
Description: SANGER: Inhibition of human SNU-449 cell growth in a cell viability assay.

[33] = test system: Huh-7; format: functional, cell-based, Homo sapiens;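 also: HuH-7 cell growth inhibition, read out with a cell viability assay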
Description: SANGER: Inhibition of human HuH-7 cell growth in a cell viability assay.

[34] = test system: NCI-H2030; format: functional, cell-based, Homo sapiens;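 also: growth inhibition of human NCI-H2030 cells, read out by a cell viability assay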
Description: SANGER: Inhibition of human NCI-H2030 cell growth in a cell viability assay.

[35] = test system: UMUC3; format: functional, cell-based, Homo sapiens;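 also: growth inhibition of human UM-UC-3 cells, read out with a cell viability assay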
Description: SANGER: Inhibition of human UM-UC-3 cell growth in a cell viability assay.

[36] = test system: HSC-4; format: functional, cell-based, Homo sapiens;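 also: growth inhibition of human HSC-4 cells, read out with a cell viability assay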
Description: SANGER: Inhibition of human HSC-4 cell growth in a cell viability assay.

Compound: Cn1cnc2c(F)c(Nc3ccc(Br)cc3Cl)c(C(=O)NOCCO)cc21 [SELUMETINIB]
- IC50 ([1]; Homo sapiens, T98G): > 4 µM
- IC50 ([2]; Homo sapiens, COLO-680N): > 4 µM
- IC50 ([3]; Homo sapiens, 647-V): > 4 µM
- IC50 ([4]; Homo sapiens, MDA-MB-231): > 4 µM
- IC50 ([5]; Homo sapiens, A673): > 4 µM
- IC50 ([6]; Homo sapiens, A549): 0.214 µM
- IC50 [7]: > 4 µM
- IC50 ([8]; Homo sapiens, Hs-578T): > 4 µM
- IC50 ([9]; Homo sapiens, KYSE-270): > 4 µM
- IC50 ([10]; Homo sapiens, OAW-28): 1.74 µM
- IC50 ([11]; Homo sapiens, HCC1395): > 4 µM
- IC50 ([12]; Homo sapiens, A-427): > 4 µM
- IC50 ([13]; Homo sapiens, MCF7): > 4 µM
- IC50 ([14]; Homo sapiens, SCC-25): > 4 µM
- IC50 ([15]; Homo sapiens, HCC1806): > 4 µM
- IC50 ([16]; Homo sapiens, CFPAC-1): > 4 µM
- IC50 ([17]; Homo sapiens, NCI-H2122): > 4 µM
- IC50 ([18]; Homo sapiens, SK-OV-3): > 4 µM
- IC50 ([19]; Homo sapiens, G-402): > 4 µM
- IC50 ([20]; Homo sapiens, MIA PaCa-2): 0.898 µM
- IC50 ([21]; Homo sapiens, AU565): > 4 µM
- IC50 ([22]; Homo sapiens, RERF-LC-MS): > 4 µM
- IC50 ([23]; Homo sapiens, NCI-H596): > 4 µM
- IC50 ([24]; Homo sapiens, U2OS): > 4 µM
- IC50 ([25]; Homo sapiens, SW1417): > 4 µM
- IC50 ([26]; Homo sapiens, NCI-H1563): > 4 µM
- IC50 ([27]; Homo sapiens, A2780): > 4 µM
- IC50 ([28]; Homo sapiens, HLE): > 4 µM
- IC50 ([29]; Homo sapiens, HO-1-N-1): 0.741 µM
- IC50 ([30]; Homo sapiens, GCT): > 4 µM
- IC50 ([31]; Homo sapiens, SKG-IIIa): > 4 µM
- IC50 ([32]; Homo sapiens, SNU-449): > 4 µM
- IC50 ([33]; Homo sapiens, Huh-7): > 4 µM

Compound: CO[C@H]1C[C@@H]2CC[C@@H](C)[C@@](O)(O2)C(=O)C(=O)N2CCCC[C@H]2C(=O)O[C@H]([C@H](C)C[C@@H]2CC[C@@H](OC(=O)C(C)(CO)CO)[C@H](OC)C2)CC(=O)[C@H](C)/C=C(\C)[C@@H](O)[C@@H](OC)C(=O)[C@H](C)C[C@H](C)/C=C/C=C/C=C/1C [TEMSIROLIMUS]
- IC50 ([1]; Homo sapiens, T98G): 0.0262 µM
- IC50 ([2]; Homo sapiens, COLO-680N): > 0.2 µM
- IC50 ([3]; Homo sapiens, 647-V): > 0.2 µM
- IC50 ([4]; Homo sapiens, MDA-MB-231): > 0.2 µM
- IC50 ([5]; Homo sapiens, A673): 0.161 µM
- IC50 ([6]; Homo sapiens, A549): 0.0202 µM
- IC50 ([8]; Homo sapiens, Hs-578T): 0.0659 µM
- IC50 ([9]; Homo sapiens, KYSE-270): 0.164 µM
- IC50 ([10]; Homo sapiens, OAW-28): > 0.2 µM
- IC50 ([11]; Homo sapiens, HCC1395): > 0.2 µM
- IC50 ([12]; Homo sapiens, A-427): 0.183 µM
- IC50 ([13]; Homo sapiens, MCF7): > 0.2 µM
- IC50 ([14]; Homo sapiens, SCC-25): > 0.2 µM
- IC50 ([15]; Homo sapiens, HCC1806): > 0.2 µM
- IC50 ([16]; Homo sapiens, CFPAC-1): > 0.2 µM
- IC50 ([17]; Homo sapiens, NCI-H2122): > 0.2 µM
- IC50 ([18]; Homo sapiens, SK-OV-3): > 0.2 µM
- IC50 ([19]; Homo sapiens, G-402): > 0.2 µM
- IC50 ([20]; Homo sapiens, MIA PaCa-2): > 0.2 µM
- IC50 ([21]; Homo sapiens, AU565): > 0.2 µM
- IC50 ([34]; Homo sapiens, NCI-H2030): 0.0981 µM
- IC50 ([35]; Homo sapiens, UMUC3): 0.0692 µM
- IC50 ([22]; Homo sapiens, RERF-LC-MS): > 0.2 µM
- IC50 ([23]; Homo sapiens, NCI-H596): > 0.2 µM
- IC50 ([36]; Homo sapiens, HSC-4): < 0.000781 µM
- IC50 ([24]; Homo sapiens, U2OS): 0.0702 µM
- IC50 ([25]; Homo sapiens, SW1417): > 0.2 µM
- IC50 ([26]; Homo sapiens, NCI-H1563): 0.106 µM
- IC50 ([27]; Homo sapiens, A2780): 0.00588 µM
- IC50 ([28]; Homo sapiens, HLE): 0.0539 µM
- IC50 ([29]; Homo sapiens, HO-1-N-1): 0.0082 µM
- IC50 ([30]; Homo sapiens, GCT): > 0.2 µM
- IC50 ([31]; Homo sapiens, SKG-IIIa): > 0.2 µM
- IC50 ([32]; Homo sapiens, SNU-449): > 0.2 µM
- IC50 ([33]; Homo sapiens, Huh-7): 0.0123 µM

Compound: CS(=O)(=O)c1ccc(C(=O)Nc2ccc(Cl)c(-c3ccccn3)c2)c(Cl)c1 [VISMODEGIB]
- IC50 ([1]; Homo sapiens, T98G): > 10 µM
- IC50 ([2]; Homo sapiens, COLO-680N): > 10 µM
- IC50 ([3]; Homo sapiens, 647-V): > 10 µM
- IC50 ([4]; Homo sapiens, MDA-MB-231): > 10 µM
- IC50 ([5]; Homo sapiens, A673): > 10 µM
- IC50 ([6]; Homo sapiens, A549): > 10 µM
- IC50 ([8]; Homo sapiens, Hs-578T): > 10 µM
- IC50 ([9]; Homo sapiens, KYSE-270): > 10 µM
- IC50 ([10]; Homo sapiens, OAW-28): > 10 µM
- IC50 ([11]; Homo sapiens, HCC1395): > 10 µM
- IC50 ([12]; Homo sapiens, A-427): > 10 µM
- IC50 ([13]; Homo sapiens, MCF7): > 10 µM
- IC50 ([14]; Homo sapiens, SCC-25): > 10 µM
- IC50 ([15]; Homo sapiens, HCC1806): > 10 µM
- IC50 ([16]; Homo sapiens, CFPAC-1): > 10 µM
- IC50 ([17]; Homo sapiens, NCI-H2122): > 10 µM
- IC50 ([18]; Homo sapiens, SK-OV-3): > 10 µM
- IC50 ([19]; Homo sapiens, G-402): > 10 µM
- IC50 ([20]; Homo sapiens, MIA PaCa-2): > 10 µM
- IC50 ([21]; Homo sapiens, AU565): > 10 µM
- IC50 ([34]; Homo sapiens, NCI-H2030): > 10 µM
- IC50 ([35]; Homo sapiens, UMUC3): > 10 µM
- IC50 ([22]; Homo sapiens, RERF-LC-MS): > 10 µM
- IC50 ([23]; Homo sapiens, NCI-H596): > 10 µM
- IC50 ([36]; Homo sapiens, HSC-4): > 10 µM
- IC50 ([24]; Homo sapiens, U2OS): > 10 µM
- IC50 ([25]; Homo sapiens, SW1417): > 10 µM
- IC50 ([26]; Homo sapiens, NCI-H1563): > 10 µM
- IC50 ([27]; Homo sapiens, A2780): > 10 µM
- IC50 ([28]; Homo sapiens, HLE): > 10 µM
- IC50 ([29]; Homo sapiens, HO-1-N-1): > 10 µM
- IC50 ([30]; Homo sapiens, GCT): > 10 µM
- IC50 ([31]; Homo sapiens, SKG-IIIa): > 10 µM
- IC50 ([32]; Homo sapiens, SNU-449): > 10 µM
- IC50 ([33]; Homo sapiens, Huh-7): > 10 µM

Compound: CISPLATIN
- IC50 ([1]; t98g): 141 µM
- IC50 ([2]; colo-680n): 23.6 µM
- IC50 ([3]; 647-v): 114 µM
- IC50 ([4]; mda-mb-231): 264 µM
- IC50 ([5]; a673): 2.17 µM
- IC50 ([6]; a549): 18.8 µM
- IC50 ([8]; hs-578-t): 11.3 µM
- IC50 ([9]; kyse-270): 9.08 µM
- IC50 ([10]; oaw-28): 22.9 µM
- IC50 ([11]; hcc1395): 143 µM
- IC50 ([12]; a-427): 350 µM
- IC50 ([13]; mcf7): 15.2 µM
- IC50 ([14]; scc-25): 64.6 µM
- IC50 ([15]; hcc1806): 7.33 µM
- IC50 ([16]; cfpac-1): 35.2 µM
- IC50 ([17]; nci-h2122): 15.3 µM
- IC50 ([18]; sk-ov-3): 614 µM
- IC50 ([19]; g-402): 7.11 µM
- IC50 ([20]; mia paca-2): 5.35 µM
- IC50 ([21]; au565): 52.5 µM
- IC50 ([34]; nci-h2030): 11.9 µM
- IC50 ([35]; umuc3): 3.93 µM
- IC50 ([22]; rerf-lc-ms): 418 µM
- IC50 ([23]; nci-h596): 305 µM
- IC50 ([36]; hsc-4): 1.58 µM
- IC50 ([24]; u-2-os): 13.4 µM
- IC50 ([25]; sw1417): 194 µM
- IC50 ([26]; nci-h1563): 146 µM
- IC50 ([27]; a2780): 6.39 µM
- IC50 ([28]; hle): 6.06 µM
- IC50 ([29]; ho-1-n-1): 39.4 µM
- IC50 ([30]; gct): 6.12 µM
- IC50 ([31]; skg-iiia): 7.05 µM
- IC50 ([32]; snu-449): 72 µM
- IC50 ([33]; huh-7): 40.9 µM
